Here are results for 94 molecules from PubChem BioAssay AID743417 (Broad Institute, 2014).

The test relates to Clone20 osteoblast Shn3 3'UTR firefly luciferase, 24 h. The test is described as follows: Shn3 3'UTR reporter inhibitors, dose response, cell-based, Clone20 osteoblasts, luminescence, dry powder, set 2 (AID 743417).

Usually AC50 stands for the midpoint of the concentration-response curve, whichever way the signal moves.

Results filed as inconclusive are left out. Calls of active or inactive are those of the source.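 Rule for the calls: active = compounds lowering the luciferase signal with a fitted half-maximal dose at most twice their top valid dose (cut at about 30 µM in these data); inconclusive = flat fits with moderate signal loss, or poor fits; inactive = the rest.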 Some results are limits rather than exact numbers.

Consider `O=C(c1ccccc1)C(CCC(CN1CCOCC1)C(=O)c1ccccc1)CN1CCOCC1` (centres undefined), for which the AC50 was 12.8 µM.
The same measure for `CC[n+]1c(/C=C/Nc2ccccc2)sc2ccccc21`: 2.06 µM; for `CC(C)CCC(C(=O)O)C(C)CC(=O)NNC(=O)c1ccco1` (centres undefined): > 70 µM (inactive); for `COC(=O)/C=C/S(=O)(=O)c1ccc(NC(C)=O)cc1`: 7.3 µM.
As for `O=C(CN1C(=O)c2ccccc2S1(=O)=O)c1ccc(Cl)cc1Cl`, the figure is 3.53 µM; as for `OC1(c2cccc(C(F)(F)F)c2)CCN(c2ncnc3c2[nH]c2ccc(F)cc23)CC1`, 1.87 µM; as for `CCCOc1ccc(C(=O)NNC(=S)NC(=O)CC)cc1`, 24.4 µM.
On to `CN(CCOc1ccc(Cl)cc1)C(=O)c1cccc(S(=O)(=O)N2CCN(c3ccc(F)cc3)CC2)c1`, for which the AC50 is 1.77 µM.
As for `CCOC(=O)c1c(C)[nH]c(C)c1C(=O)CSc1nc2ccccc2c(=O)n1-c1ccc(CC)cc1`, the figure is 5.36 µM; as for `CC(Oc1cccc(Br)c1)C(=O)NNC(=O)c1ccccn1` (centres undefined), 3.36 µM.
Take `CCCNc1nc2c(c(=O)n(C)c(=O)n2C)n1Cc1cccc(C)c1`: the AC50 was 1.91 µM.
The same measure for `COc1ccccc1N(C)S(=O)(=O)c1ccc(C(=O)Nc2cc(F)ccc2C)cc1`: 13.8 µM; for `OCc1ccc(O)c2ncccc12`: 1.66 µM; for `O=C(CSc1ccccn1)Nc1nonc1[N+](=O)[O-]`: 5 µM.
The same measure for `Cn1nc(C(C)(C)C)cc1C(=O)N1CCCCC1c1cc(C(=O)Nc2cccc3c2CCCC3)no1` (centres undefined): 10.2 µM.
As for `Oc1ccc(-c2nc(-c3ccc(O)c(O)c3)cs2)cc1`, the figure is 5.07 µM; as for `Cc1csc(NC(=O)Cc2nn(C)c(=O)c3ccccc23)n1`, 6.82 µM.
Take `Cc1cc(C)c(-c2csc(NC(=O)CCCc3nc4ccccc4c(=O)[nH]3)n2)c(C)c1`: the AC50 is 2.97 µM.
The same measure for `Cc1ccc(Oc2ccc(OCC(=O)Nc3ccncc3)cc2)cc1`: 1.55 µM.
As for `Cc1ccc2c(c1)nnn2C1CCN(S(=O)(=O)c2ccc(C(=O)N3C(C)CCCC3C)cc2)CC1` (centres undefined), the figure is 0.695 µM; as for `Cc1ccc(-c2nc3ncccc3o2)cc1NC(=O)c1sc2ccccc2c1Cl`, 5.87 µM; as for `CCOC(=O)N1CCN(C(=O)c2ccc(Cn3c(=S)[nH]c4ccc(Br)cc4c3=O)cc2)CC1`, 1.25 µM.
As for `COc1cnc(-c2ccccn2)nc1N(C)c1ccccc1`, the figure is 1.83 µM.
As for `CCOC(=O)N1CCN(CC(c2ccccc2)c2ccccc2)CC1`, the AC50 is 14.1 µM.
`Cc1ccccc1OCCn1cc(C(=S)N2CCCC2)c2ccccc21`: the half-maximal activity concentration (AC50) was 24.3 µM.
As for `CCC(=O)NC(c1ccco1)c1cc(Cl)c2cccnc2c1O` (centres undefined), the figure is 1.31 µM; as for `Cc1cc(C)c2nc(NNC(=O)c3ccc(S(=O)(=O)N4CC(C)CC(C)C4)cc3)sc2c1` (centres undefined), 2.28 µM; as for `COc1cc(C(=O)NC2CCCc3c2cnn3-c2ccccc2F)cc(OC)c1OC` (centres undefined), 0.781 µM.
As for `CC(NC(=O)c1cc(COc2ccc3ncccc3c2)on1)c1ccc(F)cc1` (centres undefined), the figure is 2.28 µM; as for `CC1=C(C(=O)OC2CCCCC2)C(c2cccnc2)n2nnnc2N1` (centres undefined), 3.23 µM; as for `CC(=O)c1c(C)[nH]c(C(=O)COc2cc(C)ccc2C(C)C)c1C`, 1.25 µM.
For the molecule `Cc1ccc(-c2nc(NC(=O)c3nn(C)cc3[N+](=O)[O-])sc2C)cc1C`, the AC50 is 2.25 µM.
Turning to `Cc1ccc(F)cc1CNC(=O)c1cc(COc2ccc3ncccc3c2)on1`, the AC50 was 4.88 µM.
As for `Cc1ccn2c(Nc3ccccc3)c(-c3ccccn3)nc2c1`, the figure is 2.31 µM; as for `C[C@@H]1CN([C@@H](C)CO)C(=O)c2cc(NC(=O)Nc3ccc(F)cc3)ccc2O[C@@H]1CN(C)Cc1ccc(Oc2ccccc2)cc1`, 9.38 µM; as for `CC(C)(C)c1ccc(-n2ncc3c2CCCC3NC(=O)C2(C(N)=O)CC2)cc1` (centres undefined), 0.589 µM.
The same measure for `Cc1cc(Cl)n2c(nc3ccccc32)c1C#N`: 1.85 µM; for `Cc1ccc(NC(=O)C2CCN(S(=O)(=O)c3ccc4c(c3)NC(=O)C(C)S4)CC2)cc1Cl` (centres undefined): 2.83 µM; for `COCCn1c(CN2CCN(c3cccc(Cl)c3)CC2)nc2c1c(=O)n(C)c(=O)n2C`: 10.7 µM.
As for `O=c1c2ccccc2nc(/C=C/c2ccc([N+](=O)[O-])o2)n1-c1ccc(O)cc1`, the figure is 3.24 µM; as for `Cc1ccc(NC(=O)c2cc3ccccc3oc2=O)cc1S(=O)(=O)N(C)C`, 1.29 µM.
Take `COC1CC2C=C(C)C=CC=CC(=O)NC(c3ccccc3)CC=CCCC(O)CC(=O)C2=C1O` (centres undefined): the AC50 was 0.629 µM.
The same measure for `CCCCC(=O)NC(c1ccc(OC)c(OC)c1)c1ccc2cccnc2c1O` (centres undefined): 1.36 µM.
The same measure for `Cc1ccc(NC(=O)c2nc(S(=O)(=O)Cc3ccccc3)ncc2Cl)cc1`: 3.42 µM.
The same measure for `CSc1nc(N)nc2c1ncn2CC(=O)N1CCN(Cc2c(C)cc(C)cc2C)CC1`: 0.526 µM; for `O=C(O)C1(Nc2ccccc2Cl)CCCC1`: 29.5 µM; for `Cc1sc2ncnc(N3CCN(CCOc4ccc(Cl)cc4)CC3)c2c1C`: 1.35 µM.
Consider `CCc1ccc(O)c(CNCCNCc2cc(CC)ccc2O)c1`, for which the AC50 was 1.38 µM.
`O=S(=O)(c1ccc(Cl)cc1)N1CCN(c2ncnc3sccc23)CC1`: the AC50 was 3.04 µM.
With `CCOc1cc(CNCCCN2CCOCC2)cc(Br)c1OCc1ccccc1Cl`, the AC50 was 9.31 µM.
As for `Cc1ccc(NC(=O)C2CCN(S(=O)(=O)c3ccc4c(c3)NC(=O)C(C)S4)CC2)cc1C` (centres undefined), the figure is 2.61 µM.
In the case of `CN(Cc1ccc(OCC(O)CN2CCCCC2)cc1)Cc1ccnc2ccccc12` (centres undefined), the AC50 was 1.21 µM.
On to `Cc1ccc(C)c(N2CCN(C(=O)CCS(=O)(=O)c3ccc4c(c3)NC(=O)C(C)S4)CC2)c1` (centres undefined), for which the concentration at half-maximal activity (AC50) is 4.47 µM.
The same measure for `CC(=O)N1CCN(C(=O)CCc2cc(C(C)(C)C)c(O)c(C(C)(C)C)c2)CC1`: 4.46 µM; for `CCOC(=O)C1CCN(S(=O)(=O)c2c(Cl)ccc3nonc23)CC1`: 0.919 µM.
As to `Cc1nc2ccccn2c1C(=O)NC1CCCc2ccccc21` (centres undefined), the AC50 is 2.47 µM.
As for `FC(F)(F)c1cccc(NC(=S)NC(c2ccccc2)c2ccccc2)c1`, the figure is 7.17 µM.
Consider `Cc1ccc(C(c2cc(Cl)c3cccnc3c2O)N2CCN(C)CC2)cc1` (centres undefined), for which the AC50 is 5.54 µM.
As for `CC(=O)N1c2ccc(S(=O)(=O)N3CCC(C(=O)Nc4cccc(F)c4)CC3)cc2CC1C` (centres undefined), the AC50 was 4.54 µM.
The same measure for `COc1ccc(Oc2cc(NC(=O)c3nn(C)cc3[N+](=O)[O-])cc([N+](=O)[O-])c2)cc1`: 0.813 µM; for `O=C(Nc1nc2c(F)cc(F)cc2s1)c1ccccn1`: 6.69 µM; for `CCCCCCCSc1cc(OC)c(CCNC)cc1OC`: 10.6 µM.
The same measure for `Oc1c(Cl)cc(CN2CCOCC2)c2cccnc12`: 2.43 µM; for `O=C(NNc1ccnc2cc(Cl)ccc12)C1CCCCC1`: less than 0.26 µM.
As for `O=C1NCCOC(=O)[C@@H](Cc2ccc(F)cc2)CC/C=C/C[C@@H]1CC(=O)N(CCO)Cc1ccccc1`, the AC50 was > 70 µM (inactive).
The same measure for `O=C(Nc1ccc(Cl)c(Cl)c1)Nc1ccc(N2CCCC2)c(S(=O)(=O)Nc2ccccc2Cl)c1`: 5.13 µM.
As for `CCOc1ccc(-n2c(-c3ccccc3)c[n+]3c2CCC3)cc1`, the AC50 was 0.526 µM.
Consider `COc1ccccc1-c1cc(C(F)(F)F)nc(S(=O)(=O)CCCC(=O)N2CCOCC2)n1`, for which the AC50 is 3.02 µM.
The same measure for `COc1ccc(Cn2c(SCc3cc(C)ccc3C)nc3cc(OC)c(OC)cc3c2=N)cc1`: 7.91 µM.
As for `Cn1nc(-c2ccc(OCC(=O)N3CCN(Cc4ccccc4)CC3)cc2)c2ccccc2c1=O`, the AC50 was 2.1 µM.
`CN(C)C1=NC[C@H](Cc2ccccc2)N1CCCC1CCCC1`: the AC50 is 2.63 µM.
The same measure for `Cc1ccc(-c2nc(NC(=O)c3nn(C)cc3[N+](=O)[O-])sc2C)cc1`: 1.3 µM; for `Fc1ccc2[nH]c3c(N4CCSCC4)ncnc3c2c1`: 2.76 µM.
As for `Cc1ccc(-n2ncc3c2CCCC3NC(=O)c2ocnc2C)cc1C` (centres undefined), the figure is 1.29 µM.
Regarding `O=c1c2ccccc2nc2n1C(CSCc1cccc(C(F)(F)F)c1)CS2` (centres undefined), the AC50 was 1.68 µM.
In the case of `O=C1[C@H]2[C@@H](c3ccc(F)cc3)N3C(=O)N(c4ccccc4)C(=O)[C@@]3(Cc3ccccc3)[C@H]2C(=O)N1C1CCCCC1`, the AC50 is > 70 µM (inactive).
The same measure for `Cc1sc2ncnc(N3CCN(S(=O)(=O)c4ccccc4)CC3)c2c1C`: 2.3 µM; for `O=C(Nc1ccc([N+](=O)[O-])cc1)Nc1nc(-c2ccc(Cl)s2)cs1`: 3.19 µM.
For `Cn1cc(CN(CCO)Cc2cccs2)c(-c2cccc(Cl)c2)n1`, the AC50 was 3.25 µM.
As for `Cc1cccc(NC(=O)CSc2nc3ccccc3c(=O)n2C)c1C`, the figure is 2.98 µM; as for `Cc1ccc(S(=O)(=O)N2CCN(c3ncnc4ccccc34)CC2)cc1`, 1.56 µM.
In the case of `CNc1ccccc1C(C)(C)c1cc(-c2cccc(Br)c2)no1`, the AC50 is 2 µM.
On to `Cc1ccc(NC(=O)CN(C)CC(=O)Nc2cccc(F)c2)cc1[N+](=O)[O-]`, for which the AC50 was 0.57 µM.
The same measure for `Cc1cc2cc(CN(CC3CCCO3)C(=S)Nc3ccccc3)c(=O)[nH]c2cc1C` (centres undefined): 2.91 µM; for `Cc1ccc(CNC(=O)c2ccc3c(=O)c(O)c(-c4ccc(C)cc4)[nH]c3c2)cc1`: 2.82 µM; for `CCOC(=O)/C=C/C(=O)OCC(=O)NC(c1ccccc1)c1ccccc1`: 5.14 µM.
Turning to `COc1ccc(S(=O)(=O)N(C)C)cc1NC(=O)C1CCN(c2ncnc3sc(C)c(C)c23)CC1`, the AC50 is 9.21 µM.
As for `Cc1cc(C)c2sc(NNC(=O)c3ccc(S(=O)(=O)N4CCc5ccccc5C4)cc3)nc2c1`, the figure is 1.8 µM.
The same measure for `CC1Sc2ccc(S(=O)(=O)N3CCC(C(=O)Nc4ccc(Cl)cc4)CC3)cc2NC1=O` (centres undefined): 2.42 µM; for `Cc1nc2ccccc2c2oc(C(=O)N3CCN(C4CCCCC4)CC3)cc12`: 7.02 µM; for `CCN(CC)CCNC(=O)CSc1c2c(nc3cc(Cl)ccc13)CCCC2`: 14.9 µM.
As for `CC(C)c1nnc(NC(=O)c2nc(S(=O)(=O)Cc3ccc(F)cc3)ncc2Cl)s1`, the figure is 2.83 µM; as for `O=C(Nc1cccc(S(=O)(=O)Nc2ccc(Cl)cc2)c1)c1ccc(Cl)nc1`, 0.606 µM.
Consider `O=C(Nc1ccccc1Cc1ccccc1)c1ccccc1NS(=O)(=O)c1ccc(Cl)s1`, for which the AC50 is 8.18 µM.
